Experimental data published in patent publication US10112951B2, “PDE1 inhibitor” (Eli Lilly and Company, priority 2016, dated 2018).

Tests used:
Type in all cases: biochemical
PDE1C = target: T1, PDE1C (Homo sapiens, UniProt Q14123); assay: Ca2+-calmodulin dependent PDE enzyme assay (SPA), PDE1C; details: [3H]cAMP 47 nM; enzyme 0.0012 nM; Ca2+/calmodulin buffer pH 7.5; read-out: IC50 (nM) of Example 1, PDE 1C
T1 construct: full-length human PDE1A (NP_001003683.1), PDE1C (NP_005011.1); His (N); made in house; host or cells: Sf9 (baculovirus, pFastBac1)
Description: (§1) The nucleotide sequences encoding full-length human PDE1A (NP_001003683.1), PDE1C (NP_005011.1), PDE5A (NP_001074.2), PDE7B (NP_061818.1) and PDE9A (NP_002597.1) are inserted into pFastBac1 (Invitrogen) vector with an N-terminal HIS tag. The nucleotide sequences encoding full-length human PDE4D (NP_006194.2) and catalytic domain (residue 641-1141) of PDE3A (NP_000912.3) are inserted into pFastBac1 (Invitrogen) vector with a C-terminal HIS tag. The nucleotide sequences encoding full-length human PDE8A (NP_002596.1) and PDE11A (AAI12394.1) are inserted into pFastBac1 (Invitrogen) vector with an N-terminal Flag tag. The nucleotide sequences encoding full-length human PDE10A (AAD32595.1) are inserted into pFastBac1 (Invitrogen) vector with a C-terminal Flag-His tag. The nucleotide sequences encoding full-length human PDE6A (NP_000431.2) and PDE6B (AAH00249.1) are inserted into pFastBacDual (Invitrogen) vector with an N-terminal HIS tag and N-terminal Flag tag, respectively, for production of PDE6A/6B dimer. […]
(§2) All 3′, 5′ cyclic nucleotide phosphodiesterase (PDE) enzyme activities are measured with a radiometric enzyme assay based on SPA detection system (scintillation proximity assay). […] Samples are read 12 hours later in a MICROBETA™ TRILUX® Counter. […] IC50 values are calculated by plotting the normalized data vs. log [compound] and fitting the data using a four parameter logistic equation. […]

PDE1B = target: T2, PDE1B (Homo sapiens, UniProt Q01064); assay: Ca2+-calmodulin dependent PDE enzyme assay (SPA), PDE1B; details: [3H]cAMP 47 nM; enzyme 0.074 nM; Ca2+/calmodulin buffer pH 7.5; read-out: IC50 (nM) of Example 1, PDE 1B
T2 construct: full-length human PDE1B (NP_000915.1); His (C); made in house; host or cells: Sf9 (pIEX4)
Description: as §1, §2

PDE8A = target: T3, PDE8A (Homo sapiens, UniProt O60658); assay: PDE enzyme assay using [3H]cAMP as substrate, PDE8A; details: [3H]cAMP 47 nM; enzyme 0.06 nM; read-out: IC50 (nM) of Example 1, PDE8A
T3 construct: full-length human PDE8A (NP_002596.1); Flag (N); made in house; host or cells: Sf9 (baculovirus, pFastBac1)
Description: as §1, with “tag.” for “tag. The nucleotide sequences encoding full-length human PDE6A (NP_000431.2) and PDE6B (AAH00249.1) are inserted into pFastBacDual (Invitrogen) vector with an N-terminal HIS tag and N-terminal Flag tag, respectively, for production of PDE6A/6B dimer.”
(§3) All 3′, 5′ cyclic nucleotide phosphodiesterase (PDE) enzyme activities are measured with a radiometric enzyme assay based on SPA detection system (scintillation proximity assay). […] Samples are read 12 hours later in a MICROBETA™ TRILUX® Counter. […] IC50 values are calculated by plotting the normalized data vs. log [compound] and fitting the data using a four parameter logistic equation.
(§4) The following phosphodiesterase activities are measured using [^3H]cAMP as reaction substrate: PDE3A (catalytic domain), PDE4D, PDE7B and PDE8A. […]

PDE6AB (PDE6A/6B dimer) = target: T4, PDE6AB (PDE6A/6B dimer) (Homo sapiens, UniProt P16499+P35913); assay: PDE enzyme assay using [3H]cGMP as substrate, PDE6AB; details: [3H]cGMP 80 nM; enzyme 5 nM; read-out: IC50 (nM) of Example 1, PDE 6AB
T4 construct: full-length human PDE6A (NP_000431.2); full-length human PDE6A (NP_000431.2) and PDE6B (AAH00249.1); His (N); Flag (N); made in house; host or cells: Sf9 (baculovirus, pFastBacDual)
Description: as §1, with “tag.” for “tag. The nucleotide sequences encoding full-length human PDE6A (NP_000431.2) and PDE6B (AAH00249.1) are inserted into pFastBacDual (Invitrogen) vector with an N-terminal HIS tag and N-terminal Flag tag, respectively, for production of PDE6A/6B dimer.”
as §3
(§5) The following phosphodiesterase activities are measured using [^3H]cGMP as reaction substrate: PDE2A, PDE5A, PDE6A/6B, PDE9A, PDE10A and PDE11A. […]

PDE9A = target: T5, PDE9A (Homo sapiens, UniProt O76083); assay: PDE enzyme assay using [3H]cGMP as substrate, PDE9A; details: [3H]cGMP 20 nM; enzyme 1 nM; read-out: IC50 (nM) of Example 1, PDE9A
T5 construct: full-length human PDE1A (NP_001003683.1), PDE1C (NP_005011.1), PDE5A (NP_001074.2), PDE7B (NP_061818.1) and PDE9A (NP_002597.1); His (N); made in house; host or cells: Sf9 (baculovirus, pFastBac1)
T5 sequence (O76083 whole entry): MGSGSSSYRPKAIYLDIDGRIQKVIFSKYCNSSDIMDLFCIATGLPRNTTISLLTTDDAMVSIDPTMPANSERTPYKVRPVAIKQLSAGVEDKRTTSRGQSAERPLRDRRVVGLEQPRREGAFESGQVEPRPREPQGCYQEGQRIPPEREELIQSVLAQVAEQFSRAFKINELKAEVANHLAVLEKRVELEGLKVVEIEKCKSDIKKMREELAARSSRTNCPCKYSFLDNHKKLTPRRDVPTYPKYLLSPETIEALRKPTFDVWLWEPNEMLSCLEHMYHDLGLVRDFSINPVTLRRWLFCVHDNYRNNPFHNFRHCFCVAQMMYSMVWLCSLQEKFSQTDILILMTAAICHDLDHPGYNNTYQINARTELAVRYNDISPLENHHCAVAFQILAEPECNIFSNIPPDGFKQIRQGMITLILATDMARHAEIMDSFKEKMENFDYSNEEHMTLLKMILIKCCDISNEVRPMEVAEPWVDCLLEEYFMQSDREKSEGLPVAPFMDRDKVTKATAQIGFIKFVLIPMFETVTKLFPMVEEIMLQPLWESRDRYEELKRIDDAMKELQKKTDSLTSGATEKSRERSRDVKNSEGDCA
Description: as §1, with “tag.” for “tag. The nucleotide sequences encoding full-length human PDE6A (NP_000431.2) and PDE6B (AAH00249.1) are inserted into pFastBacDual (Invitrogen) vector with an N-terminal HIS tag and N-terminal Flag tag, respectively, for production of PDE6A/6B dimer.”
as §3, §5

PDE5A = target: T6, PDE5A (Homo sapiens, UniProt O76074); assay: PDE enzyme assay using [3H]cGMP as substrate, PDE5A; details: [3H]cGMP 80 nM; enzyme 0.002 nM; read-out: IC50 (nM) of Example 1, PDE5A
T6 construct: full-length human PDE1A (NP_001003683.1), PDE1C (NP_005011.1), PDE5A (NP_001074.2); His (N); made in house; host or cells: Sf9 (baculovirus, pFastBac1)
Description: as §1, with “tag.” for “tag. The nucleotide sequences encoding full-length human PDE6A (NP_000431.2) and PDE6B (AAH00249.1) are inserted into pFastBacDual (Invitrogen) vector with an N-terminal HIS tag and N-terminal Flag tag, respectively, for production of PDE6A/6B dimer.”
as §3, §5

PDE4D = target: T7, PDE4D (Homo sapiens, UniProt Q08499); assay: PDE enzyme assay using [3H]cAMP as substrate, PDE4D; details: [3H]cAMP 47 nM; enzyme 0.021 nM; read-out: IC50 (nM) of Example 1, PDE4D
T7 construct: full-length human PDE4D (NP_006194.2); His (C); made in house; host or cells: Sf9 (baculovirus, pFastBac1)
T7 sequence (Q08499 1-673 isoform Q08499-2): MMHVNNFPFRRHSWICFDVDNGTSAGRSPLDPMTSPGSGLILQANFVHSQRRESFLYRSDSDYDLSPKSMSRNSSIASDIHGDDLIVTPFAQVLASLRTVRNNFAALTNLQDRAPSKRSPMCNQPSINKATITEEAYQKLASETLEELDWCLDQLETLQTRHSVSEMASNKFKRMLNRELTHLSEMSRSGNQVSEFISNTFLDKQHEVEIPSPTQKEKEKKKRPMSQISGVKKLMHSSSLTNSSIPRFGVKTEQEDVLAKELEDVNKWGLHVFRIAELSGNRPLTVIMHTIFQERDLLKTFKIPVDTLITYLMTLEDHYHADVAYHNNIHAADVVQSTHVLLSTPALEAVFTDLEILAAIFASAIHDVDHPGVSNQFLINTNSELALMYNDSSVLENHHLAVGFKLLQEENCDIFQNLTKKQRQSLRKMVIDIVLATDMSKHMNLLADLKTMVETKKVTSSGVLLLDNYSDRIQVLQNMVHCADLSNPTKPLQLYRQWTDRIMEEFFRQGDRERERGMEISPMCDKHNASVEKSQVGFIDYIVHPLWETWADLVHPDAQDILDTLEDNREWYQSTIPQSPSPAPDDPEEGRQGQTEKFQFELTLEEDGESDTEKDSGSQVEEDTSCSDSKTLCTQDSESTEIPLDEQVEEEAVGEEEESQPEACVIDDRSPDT
Description: as §1, with “tag.” for “tag. The nucleotide sequences encoding full-length human PDE6A (NP_000431.2) and PDE6B (AAH00249.1) are inserted into pFastBacDual (Invitrogen) vector with an N-terminal HIS tag and N-terminal Flag tag, respectively, for production of PDE6A/6B dimer.”
as §3, §4

PDE2A = target: T8, PDE2A (Homo sapiens, UniProt O00408); assay: PDE enzyme assay using [3H]cGMP as substrate, PDE2A; details: [3H]cGMP 80 nM; enzyme 0.2 nM; read-out: IC50 (nM) of Example 1, PDE2A
T8 construct: full-length human PDE1B (NP_000915.1) and PDE2A (NP_002590.1); His (C); made in house; host or cells: Sf9 (pIEX4)
T8 sequence (O00408 whole entry): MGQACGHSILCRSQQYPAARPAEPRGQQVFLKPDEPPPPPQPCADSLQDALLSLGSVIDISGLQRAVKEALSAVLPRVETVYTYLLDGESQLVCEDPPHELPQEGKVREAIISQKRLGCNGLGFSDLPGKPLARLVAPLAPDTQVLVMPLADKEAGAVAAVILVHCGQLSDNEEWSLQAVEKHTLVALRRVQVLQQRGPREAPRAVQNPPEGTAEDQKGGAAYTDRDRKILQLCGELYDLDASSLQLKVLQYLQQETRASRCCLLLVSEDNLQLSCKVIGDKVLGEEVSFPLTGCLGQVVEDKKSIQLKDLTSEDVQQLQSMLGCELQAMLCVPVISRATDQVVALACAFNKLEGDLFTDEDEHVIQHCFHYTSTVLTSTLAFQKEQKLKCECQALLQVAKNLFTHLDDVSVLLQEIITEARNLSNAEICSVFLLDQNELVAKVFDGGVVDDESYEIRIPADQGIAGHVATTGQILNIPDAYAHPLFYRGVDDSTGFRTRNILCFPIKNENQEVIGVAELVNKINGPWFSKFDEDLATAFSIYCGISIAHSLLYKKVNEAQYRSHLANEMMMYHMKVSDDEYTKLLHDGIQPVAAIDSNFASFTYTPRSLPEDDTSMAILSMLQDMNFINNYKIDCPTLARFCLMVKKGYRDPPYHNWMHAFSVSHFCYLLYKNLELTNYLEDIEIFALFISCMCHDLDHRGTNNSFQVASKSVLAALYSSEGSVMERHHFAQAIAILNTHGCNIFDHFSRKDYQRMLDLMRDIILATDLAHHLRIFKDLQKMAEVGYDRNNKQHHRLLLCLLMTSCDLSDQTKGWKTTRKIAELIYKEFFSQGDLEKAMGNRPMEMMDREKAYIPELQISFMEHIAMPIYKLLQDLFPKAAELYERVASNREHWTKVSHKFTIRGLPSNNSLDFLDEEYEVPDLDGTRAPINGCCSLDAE
Description: as §1, with “tag.” for “tag. The nucleotide sequences encoding full-length human PDE6A (NP_000431.2) and PDE6B (AAH00249.1) are inserted into pFastBacDual (Invitrogen) vector with an N-terminal HIS tag and N-terminal Flag tag, respectively, for production of PDE6A/6B dimer.”
as §3, §5

PDE10A = target: T9, PDE10A (Homo sapiens, UniProt Q9Y233); assay: PDE enzyme assay using [3H]cGMP as substrate, PDE10A; details: [3H]cGMP 80 nM; enzyme 0.03 nM; read-out: IC50 (nM) of Example 1, PDE10A
T9 construct: full-length human PDE10A (AAD32595.1); Flag-His (C); made in house; host or cells: Sf9 (baculovirus, pFastBac1)
T9 sequence (Q9Y233 1-779 isoform Q9Y233-1): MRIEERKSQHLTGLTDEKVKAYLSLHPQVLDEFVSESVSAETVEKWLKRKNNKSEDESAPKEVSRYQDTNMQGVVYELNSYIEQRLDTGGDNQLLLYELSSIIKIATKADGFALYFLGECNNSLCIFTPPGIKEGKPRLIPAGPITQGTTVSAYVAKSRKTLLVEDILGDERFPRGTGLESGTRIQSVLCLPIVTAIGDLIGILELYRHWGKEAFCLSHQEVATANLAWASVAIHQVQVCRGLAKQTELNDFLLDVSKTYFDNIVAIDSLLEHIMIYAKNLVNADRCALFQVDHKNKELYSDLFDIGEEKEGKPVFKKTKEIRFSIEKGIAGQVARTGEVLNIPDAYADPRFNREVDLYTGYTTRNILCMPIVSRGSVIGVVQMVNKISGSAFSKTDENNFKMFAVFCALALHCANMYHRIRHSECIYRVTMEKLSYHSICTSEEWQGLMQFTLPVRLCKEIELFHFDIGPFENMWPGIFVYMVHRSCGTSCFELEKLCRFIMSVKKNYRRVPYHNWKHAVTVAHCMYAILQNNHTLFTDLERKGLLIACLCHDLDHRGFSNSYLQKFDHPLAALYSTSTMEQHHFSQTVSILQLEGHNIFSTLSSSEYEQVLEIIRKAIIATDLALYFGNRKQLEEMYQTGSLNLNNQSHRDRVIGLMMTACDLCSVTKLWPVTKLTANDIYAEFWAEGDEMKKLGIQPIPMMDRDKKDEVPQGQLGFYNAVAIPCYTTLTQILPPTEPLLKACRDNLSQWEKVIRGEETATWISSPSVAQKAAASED
Description: as §1, with “tag.” for “tag. The nucleotide sequences encoding full-length human PDE6A (NP_000431.2) and PDE6B (AAH00249.1) are inserted into pFastBacDual (Invitrogen) vector with an N-terminal HIS tag and N-terminal Flag tag, respectively, for production of PDE6A/6B dimer.”
as §3, §5

PDE1A = target: T10, PDE1A (Homo sapiens, UniProt P54750); assay: Ca2+-calmodulin dependent PDE enzyme assay (SPA), PDE1A; details: [3H]cAMP 47 nM; enzyme 0.25 nM; Ca2+/calmodulin buffer pH 7.5; read-out: IC50 (nM) of Example 1, PDE 1A
T10 construct: full-length human PDE1A (NP_001003683.1); His (N); made in house; host or cells: Sf9 (baculovirus, pFastBac1)
Description: as §1, §2

PDE7B = target: T11, PDE7B (Homo sapiens, UniProt Q9NP56); assay: PDE enzyme assay using [3H]cAMP as substrate, PDE7B; details: [3H]cAMP 47 nM; enzyme 0.5 nM; read-out: IC50 (nM) of Example 1, PDE7B
T11 construct: full-length human PDE1A (NP_001003683.1), PDE1C (NP_005011.1), PDE5A (NP_001074.2), PDE7B (NP_061818.1); His (N); made in house; host or cells: Sf9 (baculovirus, pFastBac1)
T11 sequence (Q9NP56 whole entry): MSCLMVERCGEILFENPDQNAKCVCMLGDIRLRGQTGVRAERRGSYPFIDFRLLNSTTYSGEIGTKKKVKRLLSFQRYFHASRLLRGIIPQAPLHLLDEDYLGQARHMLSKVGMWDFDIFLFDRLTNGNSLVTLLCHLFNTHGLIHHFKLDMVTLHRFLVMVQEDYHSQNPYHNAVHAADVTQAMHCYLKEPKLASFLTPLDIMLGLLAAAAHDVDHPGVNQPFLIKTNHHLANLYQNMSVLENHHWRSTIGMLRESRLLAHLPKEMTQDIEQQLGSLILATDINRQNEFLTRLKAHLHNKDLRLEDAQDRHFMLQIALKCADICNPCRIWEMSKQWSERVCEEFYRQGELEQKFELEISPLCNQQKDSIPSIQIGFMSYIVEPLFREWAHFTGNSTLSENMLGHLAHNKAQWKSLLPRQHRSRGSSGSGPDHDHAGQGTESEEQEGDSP
Description: as §1, with “tag.” for “tag. The nucleotide sequences encoding full-length human PDE6A (NP_000431.2) and PDE6B (AAH00249.1) are inserted into pFastBacDual (Invitrogen) vector with an N-terminal HIS tag and N-terminal Flag tag, respectively, for production of PDE6A/6B dimer.”
as §3, §4

PDE3A (catalytic domain) = target: T12, PDE3A (catalytic domain) (Homo sapiens, UniProt Q14432); assay: PDE enzyme assay using [3H]cAMP as substrate, PDE3A; details: [3H]cAMP 47 nM, enzyme 0.008 nM, read-out: IC50 (nM) of Example 1, PDE3A
T12 construct: catalytic domain (residue 641-1141) of PDE3A (NP_000912.3); His (C); made in house; host or cells: Sf9 (baculovirus, pFastBac1)
T12 sequence (Q14432 641-1141): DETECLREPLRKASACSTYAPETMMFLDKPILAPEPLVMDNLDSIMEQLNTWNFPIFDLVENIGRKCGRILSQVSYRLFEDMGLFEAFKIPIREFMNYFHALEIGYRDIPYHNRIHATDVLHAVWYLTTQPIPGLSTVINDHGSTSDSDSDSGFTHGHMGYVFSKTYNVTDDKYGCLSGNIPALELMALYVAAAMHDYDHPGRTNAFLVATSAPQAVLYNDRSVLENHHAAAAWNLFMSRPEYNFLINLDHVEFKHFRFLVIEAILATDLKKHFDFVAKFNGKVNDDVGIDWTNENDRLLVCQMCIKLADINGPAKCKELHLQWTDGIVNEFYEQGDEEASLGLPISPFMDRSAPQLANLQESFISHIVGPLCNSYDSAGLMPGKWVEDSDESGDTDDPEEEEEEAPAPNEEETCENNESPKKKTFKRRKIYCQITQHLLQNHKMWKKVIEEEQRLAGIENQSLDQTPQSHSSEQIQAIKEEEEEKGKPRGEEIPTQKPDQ
Description: as §1, with “tag.” for “tag. The nucleotide sequences encoding full-length human PDE6A (NP_000431.2) and PDE6B (AAH00249.1) are inserted into pFastBacDual (Invitrogen) vector with an N-terminal HIS tag and N-terminal Flag tag, respectively, for production of PDE6A/6B dimer.”
as §3, §4

PDE11A = target: T13, PDE11A (Homo sapiens, UniProt Q9HCR9); assay: PDE enzyme assay using [3H]cGMP as substrate, PDE11A; details: [3H]cGMP 80 nM; enzyme 0.03 nM; read-out: IC50 (nM) of Example 1, PDE11A
T13 construct: full-length human PDE8A (NP_002596.1) and PDE11A (AAI12394.1); Flag (N); made in house; host or cells: Sf9 (baculovirus, pFastBac1)
T13 sequence (Q9HCR9 whole entry): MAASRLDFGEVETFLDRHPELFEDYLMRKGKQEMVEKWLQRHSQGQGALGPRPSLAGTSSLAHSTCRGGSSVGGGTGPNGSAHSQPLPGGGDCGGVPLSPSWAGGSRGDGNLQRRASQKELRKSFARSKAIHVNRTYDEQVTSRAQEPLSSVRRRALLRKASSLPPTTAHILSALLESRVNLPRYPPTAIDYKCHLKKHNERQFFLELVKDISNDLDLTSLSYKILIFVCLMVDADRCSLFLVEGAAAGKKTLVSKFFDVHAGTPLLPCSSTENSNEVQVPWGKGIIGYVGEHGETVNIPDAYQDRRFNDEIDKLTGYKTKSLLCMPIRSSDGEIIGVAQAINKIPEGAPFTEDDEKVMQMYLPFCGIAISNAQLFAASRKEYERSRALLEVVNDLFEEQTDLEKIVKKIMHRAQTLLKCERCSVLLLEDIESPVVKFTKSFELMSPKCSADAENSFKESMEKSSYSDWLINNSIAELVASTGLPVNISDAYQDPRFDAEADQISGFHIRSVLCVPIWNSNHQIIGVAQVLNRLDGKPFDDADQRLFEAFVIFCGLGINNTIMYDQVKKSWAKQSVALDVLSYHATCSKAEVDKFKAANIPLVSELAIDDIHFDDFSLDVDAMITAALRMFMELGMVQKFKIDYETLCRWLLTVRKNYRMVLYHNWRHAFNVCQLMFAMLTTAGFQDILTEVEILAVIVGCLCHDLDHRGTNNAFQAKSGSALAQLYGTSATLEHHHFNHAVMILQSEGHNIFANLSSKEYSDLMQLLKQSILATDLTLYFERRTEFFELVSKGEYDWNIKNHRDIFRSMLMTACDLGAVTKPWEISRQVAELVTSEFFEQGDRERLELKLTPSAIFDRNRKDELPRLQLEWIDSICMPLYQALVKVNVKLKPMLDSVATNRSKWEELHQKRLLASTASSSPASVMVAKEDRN
Description: as §1, with “tag.” for “tag. The nucleotide sequences encoding full-length human PDE6A (NP_000431.2) and PDE6B (AAH00249.1) are inserted into pFastBacDual (Invitrogen) vector with an N-terminal HIS tag and N-terminal Flag tag, respectively, for production of PDE6A/6B dimer.”
as §3, §5

Work on `O=c1c2nnc(C3(C4CC4)CC3)n2c2c(n1CC1CC1)CCCC2` [Example 1, 1-(1-cyclopropylcyclopropyl)-5-(cyclopropylmethyl)-6,7,8,9-tetrahydro-[1,2,4]triazolo[4,3-a]quinoxalin-4-one] yielded an IC50 (PDE1C) of 3.05 nM, an IC50 (PDE1B) of 4.91 nM and an IC50 (PDE8A) of over 10000 nM. The IC50 (PDE6AB (PDE6A/6B dimer)) was over 10000 nM, the IC50 (PDE9A) was over 10000 nM and the IC50 (PDE5A) was over 10000 nM. It also gave an IC50 (PDE4D) of 7060 nM, an IC50 (PDE2A) of over 10000 nM and an IC50 (PDE10A) of over 10000 nM. It also gave an IC50 (PDE1A) of 3.41 nM, an IC50 (PDE7B) of 2180 nM and an IC50 (PDE3A (catalytic domain)) of over 100000 nM. The IC50 (PDE11A) was 2970 nM.
